The target of one assay is T1, endogenous NOD1 (Homo sapiens, UniProt Q9Y239).
T1 construct: Compound activity on endogenous NOD1 and NOD2 receptors was determined; host or cells: HCT116
T1 sequence (Q9Y239 1-953): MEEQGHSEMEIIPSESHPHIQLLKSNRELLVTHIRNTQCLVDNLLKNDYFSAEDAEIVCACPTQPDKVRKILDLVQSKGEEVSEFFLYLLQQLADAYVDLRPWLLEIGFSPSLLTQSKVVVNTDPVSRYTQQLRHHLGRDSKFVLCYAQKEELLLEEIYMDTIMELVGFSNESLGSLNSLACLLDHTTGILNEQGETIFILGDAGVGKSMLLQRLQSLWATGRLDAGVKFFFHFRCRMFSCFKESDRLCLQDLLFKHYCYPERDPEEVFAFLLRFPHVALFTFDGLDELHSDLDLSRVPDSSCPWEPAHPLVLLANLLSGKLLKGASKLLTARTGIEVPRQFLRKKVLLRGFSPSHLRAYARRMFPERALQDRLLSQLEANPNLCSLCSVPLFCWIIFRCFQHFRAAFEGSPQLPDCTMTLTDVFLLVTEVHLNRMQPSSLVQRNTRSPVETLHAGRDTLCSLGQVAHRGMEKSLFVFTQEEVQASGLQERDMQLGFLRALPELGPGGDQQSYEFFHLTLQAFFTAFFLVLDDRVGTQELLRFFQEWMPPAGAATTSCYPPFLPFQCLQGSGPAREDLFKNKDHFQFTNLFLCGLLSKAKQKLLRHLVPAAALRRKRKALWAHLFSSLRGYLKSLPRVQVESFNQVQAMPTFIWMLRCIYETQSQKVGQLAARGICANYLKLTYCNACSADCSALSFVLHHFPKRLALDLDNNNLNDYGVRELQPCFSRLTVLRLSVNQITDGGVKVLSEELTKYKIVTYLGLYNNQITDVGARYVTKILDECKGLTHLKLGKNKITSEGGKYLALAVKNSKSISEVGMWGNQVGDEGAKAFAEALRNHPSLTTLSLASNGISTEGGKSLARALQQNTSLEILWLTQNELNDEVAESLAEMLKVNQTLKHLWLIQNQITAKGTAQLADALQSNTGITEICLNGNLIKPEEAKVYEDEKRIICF
The assay can be described thus: Tri-DAP-stimulated IL-8 release in HCT116 cells. In kind it is cell-based. As to conditions: HCT116, increasing compound concentrations 0.005–1 µM, Tri-DAP 0.6–75 µg/mL.

For assay [1], the system named is NOD1-induced type I interferon response. The assay can be described thus: Tri-DAP stimulated IP-10 secretion in HT-29 cells. In kind it is cell-based. As to conditions: Homo sapiens; HT-29, 50 µg/mL Tri-DAP 24 hours. The method, then: For assay, cells were seeded into 96 well plates (90,000 cells/well) in DMEM containing 1% FBS and pre-incubated with compounds for 1 hour before addition of either 25 µg/mL Tri-DAP or 1 µg/mL MDP. The level of IL-8 released into medium after 24-hour incubation was determined by HTRF assay (Cisbio) as described above and fluorescence measured on an Envision model 2102 multilabel plate reader (Perkin Elmer). The activity of compounds against NOD1-induced type I interferon response was determined by inhibition of Tri-DAP stimulated IP-10 secretion in HT-29 cells, maintained in the same medium as for HCT116 cells. The HT-29 cells were seeded into 96 well plates (60,000 cells/well) in DMEM with 1% FBS, pre-incubated with compounds for 1 hour and stimulated for 24 hours with 50 µg/mL Tri-DAP. The concentration of IL-8 released into the medium was measured by HTRF as above, IP-10 was measured using the IP-10/CXCL10 Quantikine ELISA kit (R&D Systems), and IFNβ was measured using the MA6000 human IFN-β tissue culture kit (Meso Scale Discovery).

The subject of a further assay is murine NOD1. The assay can be described thus: NOD1 stimulated KC (CXCL1) production in murine bone marrow derived macrophages. In kind it is cell-based, mouse. As to conditions: murine BMDM, 25 µg/mL FK156 or Tri-DAP, 24 hours. The method, then: C57BL/6 mice were obtained from the Jackson Laboratories. Bone marrow was flushed from the femurs and tibiae of adult (∼3 month old) mice with serum-free DMEM medium using a 23-gauge needle and syringe. A fine cell suspension was obtained by gentle aspiration and passage through a […] cell strainer. After centrifugation and re-suspending in DMEM supplemented with 10%HI-FBS, the mononuclear cells obtained from each animal were plated into the central 60 wells of a 96-well plate. After 24 hours, the medium and non-adherent cells were removed and replaced with DMEM with 10%HI-FBS containing 10 ng/mL M-CSF and the cells cultured for 1 week with two additional medium changes. After this time the medium was aspirated and the cells pre-treated with compounds for 1 hour and then stimulated for 24 hours with either 25 µg/mL Tri-DAP or FK156. Each treatment was performed in triplicate wells. The concentration of murine KC (CXCL1) together with 6 other cytokines/chemokines present in conditioned medium was then determined using the murine pro-inflammatory 7-plex assay (Meso Scale Discovery).

In a further assay the test system is TLR4. Details: method as in PMID 22870324. Conditions: human lung microvascular endothelial cells; cited from earlier work.

Structures are written as SMILES.

A word on the IC50: it is the point on the concentration scale where inhibition reaches its midpoint. Low values mean higher potency, high ones lower potency. Consider `Cc1ccc(S(=O)(=O)Nc2cccc(C(=O)Nc3ccc4nc(C)sc4c3)c2)cc1` [Compound 16], for which the “effect on Tri-DAP concentration response (IL-8)” value at endogenous NOD1 was “progressive reduction in both the apparent EC50 and maximum response of Tri-DAP”. This compound also displayed an IC50 in assay [1] of 250 nM. In addition, the “inhibition of FK156 or Tri-DAP-stimulated KC production” value in the assay with murine NOD1 is “partial inhibition at best”.
Take `Cc1nc2ccccc2c(=O)n1-c1ccc(Cl)c(NS(=O)(=O)c2ccccc2F)c1` [Compound 22]: the “effect on Tri-DAP concentration response (IL-8)” value at endogenous NOD1 was “progressive reduction in both the apparent EC50 and maximum response of Tri-DAP”. This compound also registered an IC50 in assay [1] of 80 nM. Also, the “effect on IL-8 release, LPS stimulated” value with TLR4 was “no inhibitory effect”. For the same compound, the “inhibition of FK156 or Tri-DAP-stimulated KC production” value in the assay with murine NOD1 is reported as “little or no inhibitory activity”.

The record behind these values is PMC4013053, “Identification of Selective Small Molecule Inhibitors of the Nucleotide-Binding Oligomerization Domain 1 (NOD1) Signaling Pathway” (PLoS ONE, 2014).
